Laboratory results reported in patent US9278957B2, “Piperazine, piperidine and tetrahydropyridine derivatives and their pharmaceutical use” (ATIR Holding S.A., priority 2009, dated 2016).

What was measured:
[1] = molecular target: T1, dopamine D4.4 receptor (Homo sapiens, UniProt P21917); experiment: dopamine D4.4 receptor binding (inhibition of labeled ligand binding); conditions: compound at 1micrMol
T1 sequence (P21917 1-419): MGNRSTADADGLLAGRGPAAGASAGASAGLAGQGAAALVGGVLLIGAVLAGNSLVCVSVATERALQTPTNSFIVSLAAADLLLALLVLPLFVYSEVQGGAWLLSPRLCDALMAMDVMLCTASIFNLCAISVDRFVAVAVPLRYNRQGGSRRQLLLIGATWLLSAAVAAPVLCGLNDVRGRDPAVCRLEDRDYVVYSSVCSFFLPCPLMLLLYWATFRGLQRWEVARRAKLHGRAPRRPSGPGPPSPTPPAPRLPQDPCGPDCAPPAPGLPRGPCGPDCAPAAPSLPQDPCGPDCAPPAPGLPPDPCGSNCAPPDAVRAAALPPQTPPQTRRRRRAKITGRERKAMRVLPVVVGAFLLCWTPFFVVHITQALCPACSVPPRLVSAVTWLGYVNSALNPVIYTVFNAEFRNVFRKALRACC
Experimental: (§1) The compounds of the invention may be used in the treatment of CNS disorders in mammals, especially human. Of particular interest is the use of the compounds of the invention as anti-dyskinetic agents. Dyskinesia is a serious side effect associated with L-DOPA treatment of patients with Parkinson's disease.
(§2) The compounds of Examples 1, 3, 4 and 9 were tested for their 5-HT1A receptor binding activity and dopamine (D2, D3 and D4.4) receptors binding activity according to the protocols set forth above. The percentage inhibition of labeled ligand binding caused by the indicated few test ligand compound of the invention at different concentrations of said test ligand is shown in Table I.

[2] = molecular target: dopamine D2 receptor (Homo sapiens, UniProt P14416); experiment: dopamine D2 receptor binding (inhibition of labeled ligand binding); conditions: compound at 1micrMol
Experimental: as §1, §2

[3] = molecular target: dopamine D3 receptor (Homo sapiens, UniProt P35462); experiment: dopamine D3 receptor binding (inhibition of labeled ligand binding); conditions: compound at 1micrMol
Experimental: as §1, §2

[4] = molecular target: T2, 5-HT1A receptor (Homo sapiens, UniProt P08908); experiment: 5-HT1A receptor binding (inhibition of labeled ligand binding); conditions: compound at 1micrMol
T2 sequence (P08908 1-422): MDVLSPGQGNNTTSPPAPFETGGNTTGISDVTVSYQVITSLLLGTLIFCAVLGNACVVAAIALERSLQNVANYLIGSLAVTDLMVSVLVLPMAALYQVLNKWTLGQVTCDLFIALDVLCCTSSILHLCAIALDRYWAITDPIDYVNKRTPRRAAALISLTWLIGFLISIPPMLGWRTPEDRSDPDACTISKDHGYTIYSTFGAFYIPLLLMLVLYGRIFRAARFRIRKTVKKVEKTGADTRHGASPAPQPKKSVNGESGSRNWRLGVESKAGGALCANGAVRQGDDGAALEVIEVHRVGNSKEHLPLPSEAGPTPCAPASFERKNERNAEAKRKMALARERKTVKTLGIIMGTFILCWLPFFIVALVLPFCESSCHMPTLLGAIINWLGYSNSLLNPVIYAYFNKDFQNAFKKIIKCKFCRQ
Experimental: as §1, §2

[5] = tested on: L-DOPA induced dyskinesia in parkinsonian rats; experiment: L-DOPA-induced abnormal involuntary movements (AIMS) in the 6-OHDA lesion rat model; format: in vivo
Experimental: In the following study, the compound of Example 2 was tested for its in vivo activity against L-DOpA induced dyskinesia in parkinsonian rats (the model is the L-DOPA-induced abnormal involuntary movements (AIMS) in the 6-hydroxydopamine (6-OHDA) lesion rat model).
Rats were unilaterally lesioned with (6-OHDA) in medial forebrain bundle. Three weeks later, rats were injected with apomorphine (0.1 mg/kg s.c.) and numbers of contralateral turns were counted using a rotameter. Two weeks after the apomorphine test, rats showing marked turning activity were selected and split into 2 groups:
The experimental group, which received the compound of Example 2, and the control group, which received the injection medium for said compound (CMC in saline); n=5 and 3 respectively.
All animals were treated daily with L-dopa/carbidopa (25/6 mg/kg respectively) and dyskinetic movements were scored commencing day 5. Compounds were administered in escalating dose, at daily doses shown below, commencing day 11 of L-dopa treatment: 1 mg/kg—11th day, 1 mg/kg—12th, 2 mg/kg—15th, 2 mg/kg—16th. On the 17th day, the rats of the control group were injected with propranolol (10 mg/kg in saline), whereas the rats of the experimental group were injected with saline. […]
The following dyskinetic movements were scored: dystonic posturing, head and upper body movements, forelimb, locomotion, trunk, orolingual.

dopamine D2 receptor, sequence (P14416 whole entry): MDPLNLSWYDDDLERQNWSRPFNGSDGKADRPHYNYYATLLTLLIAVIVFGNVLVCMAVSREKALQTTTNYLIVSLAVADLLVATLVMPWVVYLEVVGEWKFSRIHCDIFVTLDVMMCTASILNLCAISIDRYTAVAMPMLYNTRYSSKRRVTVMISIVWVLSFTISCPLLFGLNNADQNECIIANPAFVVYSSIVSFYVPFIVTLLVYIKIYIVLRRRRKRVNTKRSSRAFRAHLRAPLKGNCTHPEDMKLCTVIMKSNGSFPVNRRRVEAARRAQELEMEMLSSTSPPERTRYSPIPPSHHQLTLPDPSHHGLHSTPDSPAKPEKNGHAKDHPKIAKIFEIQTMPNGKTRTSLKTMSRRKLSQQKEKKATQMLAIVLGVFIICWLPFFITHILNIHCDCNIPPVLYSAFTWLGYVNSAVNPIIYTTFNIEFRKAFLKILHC
dopamine D3 receptor, sequence (P35462 whole entry): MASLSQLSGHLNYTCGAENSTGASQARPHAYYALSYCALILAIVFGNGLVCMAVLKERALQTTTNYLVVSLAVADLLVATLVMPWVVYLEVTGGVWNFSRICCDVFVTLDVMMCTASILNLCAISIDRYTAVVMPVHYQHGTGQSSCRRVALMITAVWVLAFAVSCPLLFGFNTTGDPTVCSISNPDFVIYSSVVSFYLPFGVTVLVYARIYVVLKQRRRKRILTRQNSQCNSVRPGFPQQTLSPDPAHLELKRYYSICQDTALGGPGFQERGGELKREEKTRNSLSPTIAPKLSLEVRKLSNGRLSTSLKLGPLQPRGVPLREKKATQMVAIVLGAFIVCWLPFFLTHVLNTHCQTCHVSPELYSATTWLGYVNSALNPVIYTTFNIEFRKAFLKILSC

| Compound | D4 binding, percentage inhibition of labeled ligand binding [1] [%] | D2 binding, percentage inhibition of labeled ligand binding [2] [%] | D3 binding, percentage inhibition of labeled ligand binding [3] [%] | 5-HT1A binding, percentage inhibition of labeled ligand binding [4] [%] | anti-dyskinetic effect (AIM score, sum of all movements) ([5]; 6-OHDA lesioned rats on daily L-dopa/carbidopa 25/6 mg/kg, 16th day, second successive daily dose of 2 mg/kg) | effect on abnormal involuntary movements (AIM score) ([5]; 6-OHDA lesioned rats on L-dopa/carbidopa, control group, 10 mg/kg in saline on the 17th day) |
| --- | --- | --- | --- | --- | --- | --- |
| Oc1cccc(N2CCN(Cc3cccc4c3oc3ccccc34)CC2)c1 [Example L-33] | 77.7 | 75 | 78.2 | 43.4 | strong anti-dyskinetic effect |  |
| c1ccc(C2CCN(Cc3cccc4c3oc3ccccc34)CC2)cc1 [Example L-105] | 69.1 | 93.8 | 44.5 | 42.2 |  |  |
| COc1ccccc1N1CCN(Cc2cccc3c2oc2ccccc23)CC1 [Example L-107] | 78 | 96 | 33.7 | 86.7 |  |  |
| N#Cc1ccccc1N1CCN(Cc2cccc3c2oc2ccccc23)CC1 [Example L-109] | 64.9 | 68.7 | 63.2 | 73.5 |  |  |
| CC(C)NCC(O)COc1cccc2ccccc12 (stereo not drawn) [Propanolol, propranolol, reference compound] |  |  |  |  |  | reduced the abnormal involuntary movements |
